Laboratory results taken from paper PMC6539525, “Design, Synthesis, and Mechanism of Dihydroartemisinin–Coumarin Hybrids as Potential Anti-Neuroinflammatory Agents” (Molecules, 2019).
Read-outs that look alike come from different tables or passages of the source.

What was measured:
[1] = test system: NO release of LPS-induced microglial N9 cells; experiment: Inhibition of NO release in LPS-induced N9 cells (Griess); assay type: cell-based, murine; conditions: Mus musculus, 1 μg/mL LPS for 48 h, NO level in medium
Method: (§1) The anti-neuroinflammatory activity of DCH was evaluated and then the representative compounds were selected for the further study. […] In addition, in order to exclude the death influence, MTT-IC20 of all the compounds were measured. […] The exact reason was still unclear, but we supposed that it might be related to the homeostasis of cells. The tumor cells actually were always in hypoxia condition, in which DCH could promote the cytotoxic activity against tumor cells. In brief, DCH could reduce the release of NO caused by LPS-induced microglial cells.
(§2) N9 cells, which were in the logarithmic phase, were incubated for 24 h by adherent culture. Subsequently, the medium was changed to new one without serum. The cells were treated with different concentration of tested compounds. After specific time in the LPS condition, the supernatants were collected and analyzed.
The nitrite levels in medium were determined by Griess reaction. The absorbance was measured at 540 nm using a microplate reader.

[2] = MTT cytotoxicity in N9 cells; assay type: cell-based, murine; conditions: mouse, N9 microglial cells, cytotoxic activity
Method: as §1
(§3) When the adherent cells reached 80% confluence, the culture medium was discarded. The cells were digested by trypsin and collected after centrifugation. The fresh culture medium was gently blown into it to form single-cell suspension. Cell suspension will be diluted to 1.5–3 × 10^4 cells/mL. Each hole of 96-well plates was added 100 μL cell suspension and incubated for 24 h (5% CO2; 37 °C). Then the holes were added different concentrations of tested compounds. The early screening concentration is set to 100 μM, 50 μM, 25 μM, 12.5 μM, and 6.25 μM. Three replicates were made for each concentration of the tested compounds. After the cells were grown for 96h, 20 μL MTT (5 mg/mL) was added to each well and incubated for 4 h. The medium was discarded and each well was added 100 μL DMSO to dissolve the formazan blue. Absorbance was measured at 570 nm with a microplate reader (Synergy-HT, BioTek Instruments, Winooski, VT, USA).
as §2

[3] = test system: TNF-α release of LPS-induced N9 cells; experiment: TNF-α release of LPS-induced N9 cells (cytokine kit); assay type: cell-based, murine; conditions: compound 1 μM, LPS 1 μg/mL, 48 h; for inhibition at 1 µM: Mus musculus
Method: as §2
(§4) The secreted level of TNF-α and IL-6 was measured using mouse Th1/Th2/Th17 Cytokine Kit, purchased from BD Pharningen. The data was analyzed by FCAP Array v3.0. IL-2, IL-4, IL-10, IL-17A, and IFN-γ were not detected in the experiment.

HT-29 cells = experiment: MTT cytotoxicity in HT-29 cells; assay type: cell-based, Human; conditions: Homo sapiens, MTT
Method: (§5) As the anti-neuroinflammatory agents for cancer patients, all newly synthesized compounds were evaluated in vitro for antitumor activity against human breast cancer cell line MDA-MB-231, colorectal cancer cells HT-29 and HCT-116, and lung cancer cell line A549 by using the standard MTT method, respectively. Doxorubicin (DOX) and DHA were used as the reference standard. Additionally, owing to the rapid proliferation, the tumor cells actually was always in hypoxia condition. Therefore, the in vitro cytotoxicity was evaluated in two different conditions (hypoxia and normoxia).
After recovery, the cells were cultured in 96-well plates for 24 h at 37 °C in a humidified atmosphere with 95% air and 5% CO2. After treated with different tested compounds, the hypoxia groups were placed in a sealed hypoxia incubator chamber (Stemcell Technologies, Inc., Vancouver, BC, Canada) filled with 5% CO2 and 95% N2 for 24 h, and then transferred to the incubator chamber filled with air for 72 h. […]
(§6) Cancer cells HT-29 (Human Colorectal Adenocarcinoma cell line), MDA-MB-231 (Human Breast Cancer cell line), HCT-116 (Human Colorectal Carcinoma cell line), and A549 (Human Lung Adenocarcinomic cell line) were from ATCC.
as §3, with “After the cells were grown for 96h, 20 μL MTT (5 mg/mL) was added to each well and incubated for 4 h.” left out, “USA). […]” for “USA).”

[4] = test system: IL-6 release of LPS-induced N9 cells; experiment: IL-6 release of LPS-induced N9 cells (cytokine kit); assay type: cell-based, murine; conditions: compound 1 μM, LPS 1 μg/mL, 48 h; for inhibition at 1 µM: Mus musculus
Method: as §2, §4

MDA-MB-231 cells = experiment: MTT cytotoxicity in MDA-MB-231 cells; assay type: cell-based; conditions: Homo sapiens
Method: as §5
(§7) After recovery, the cells were cultured in 96-well plates for 24 h at 37 °C in a humidified atmosphere with 95% air and 5% CO2. After treated with different tested compounds, the hypoxia groups were placed in a sealed hypoxia incubator chamber (Stemcell Technologies, Inc., Vancouver, BC, Canada) filled with 5% CO2 and 95% N2 for 24 h, and then transferred to the incubator chamber filled with air for 72 h. On the contrary, the normoxia groups were cultured under air condition for 96h.
as §6, §3
(§8) Hypoxia condition: The cells were treated with different concentration of tested compounds, placed in hypoxia chamber (Catalog Number 27310, Stemcell Technologies, Inc., Vancouver, BC, Canada), and incubated for 24 h ([…]; 37 °C). Then the cells were placed in normoxia condition (5% CO2; 37 °C) and incubated for 72 h.

A549 cells = experiment: MTT cytotoxicity in A549 cells; assay type: cell-based; conditions: Homo sapiens
Method: as §5, §7, §6, §3, §8

HCT-116 cells = experiment: MTT cytotoxicity in HCT-116 cells; assay type: cell-based; conditions: Homo sapiens
Method: as §5, §7, §6, §3, §8

[5] = NO capture analysis with sodium nitroprusside (Griess); conditions: 0.01-10 μM compound, 0.5 mM SNP solution, 1 h, room temperature
Method: Sodium nitroprusside (SNP) is a NO donor. In this experiment, the reason of the DCH reducing NO level was preliminary explored. […] That means the main reason of the NO level reduction is due to species-specific effect.
SNP was dissolved in PBS to prepare the 100 mM stock solution. In this experiment, SNP solution of […] was added to 975 μL PBS solution which included different concentration of tested compounds. After 60 min under r.t. condition, the concentration of NO2^− was tested using Griess assay.
6l (0.01 μM, 0.1 μM, 1 μM, and 10 μM) or 5n (0.01 μM, 0.1 μM, 1 μM, and 10 μM) was added to a concentration of 0.5 mM SNP solution. […] Data were shown as mean ± SD. *** p < 0.001 compared with control group.

[6] = HT-29, hypoxia 24 h then normoxia 72 h, read-out: IC50 HT-29 Hypoxia
[7] = HT-29, normoxia 96 h, read-out: IC50 HT-29 Normoxia
[8] = MDA-MB-231, hypoxia 24 h then normoxia 72 h, read-out: IC50 MDA-MB-231 Hypoxia
[9] = MDA-MB-231, normoxia 96 h, read-out: IC50 MDA-MB-231 Normoxia
[10] = A549, hypoxia 24 h then normoxia 72 h, read-out: IC50 A549 Hypoxia
[11] = A549, normoxia 96 h, read-out: IC50 A549 Normoxia
[12] = HCT-116, hypoxia 24 h then normoxia 72 h, read-out: IC50 HCT-116 Hypoxia
[13] = HCT-116, normoxia 96 h, read-out: IC50 HCT-116 Normoxia

Row | Structure (SMILES) | IC50 [1] [µM] | IC20 [2] [µM] | inhibition at 1 µM [3] [%] | TNF-α [3] [pg/mL] | IC50 (HT-29 cells; [6]) [µM] | IC50 (HT-29 cells; [7]) [µM] | inhibition at 1 µM [4] [%] | IL-6 [4] [pg/mL] | IC50 (MDA-MB-231 cells; [8]) [µM] | IC50 (MDA-MB-231 cells; [9]) [µM] | IC50 (A549 cells; [10]) [µM] | IC50 (A549 cells; [11]) [µM] | melting point [°C] | IC50 (HCT-116 cells; [12]) [µM] | IC50 (HCT-116 cells; [13]) [µM] | NO radical scavenging activity [5]
1 | C[C@H]1[C@@H](OCCc2cn(Cc3cc4cc(Br)ccc4oc3=O)nn2)O[C@@H]2O[C@@]3(C)CC[C@H]4[C@H](C)CC[C@@H]1[C@@]24OO3 [2b, 6-bromo-3-((4-(2-((10S)-dihydroartemisininoxy)ethyl)-1H-1,2,3-triazol-1-yl)-methyl)-2H-1-chromen-2-one] | 0.64 | > 10 | 27.2 | 3285.99 ± 1062.40 | 12.1 | 9.75 | 30.9 | 797.52 ± 140.74 | 36.9 | 37.7 | 60.2 | > 100 | 138 to 140 | > 100 | 56 | 
2 | C[C@H]1[C@@H](OCCc2cn(Cc3cc4cc(Cl)ccc4oc3=O)nn2)O[C@@H]2O[C@@]3(C)CC[C@H]4[C@H](C)CC[C@@H]1[C@@]24OO3 [2c, 6-chloro-3-((4-(2-((10S)-dihydroartemisininoxy)ethyl)-1H-1,2,3-triazol-1-yl)-methyl)-2H-1-chromen-2-one] | 2.66 | > 10 | 32.1 | 3077.03 ± 375.48 | 19.6 | 17.5 | 26.4 | 850.24 ± 112.47 | 32.5 | 44 | 66.9 | 87.2 | 138 to 140 | 64.4 | 49.5 | 
3 | C[C@H]1[C@@H](OCCCn2cc(COc3cc(=O)oc4ccccc34)nn2)O[C@@H]2O[C@@]3(C)CC[C@H]4[C@H](C)CC[C@@H]1[C@@]24OO3 [6j] | 0.29 | > 10 |  |  | 7.42 | 10.5 |  |  | 33.4 | 67.4 | 49 | 53.4 | 74 to 76 | 32.8 | 25.9 | 
4 | Cc1ccc2c(OCc3cn(CCCO[C@H]4O[C@@H]5O[C@@]6(C)CC[C@H]7[C@H](C)CC[C@@H]([C@H]4C)[C@@]57OO6)nn3)cc(=O)oc2c1 [6k] | 1.91 | > 10 |  |  | 5.32 | 6.85 |  |  | 14.5 | 38.6 | 9.49 | 14.9 | 80 to 82 | 33.7 | 28.1 | 
5 | Cc1cc(C)c2c(OCc3cn(CCCO[C@H]4O[C@@H]5O[C@@]6(C)CC[C@H]7[C@H](C)CC[C@@H]([C@H]4C)[C@@]57OO6)nn3)cc(=O)oc2c1 [6l] | 0.52 | > 10 |  |  | 3.4 | 8.41 |  |  | 6.85 | 1.17 | 9.78 | 6.88 | 86 to 88 | 27.9 | 26.9 | had NO radical scavenging activity
6 | Cc1cc(C)c2oc(=O)cc(OCc3cn(CCCO[C@H]4O[C@@H]5O[C@@]6(C)CC[C@H]7[C@H](C)CC[C@@H]([C@H]4C)[C@@]57OO6)nn3)c2c1 [6m] | 5.8 | > 10 |  |  | 5.9 | 22.4 |  |  | 18.7 | 24.6 | 20.1 | 27.9 | 90 to 92 | 93.5 | 42.1 | 
7 | Cc1ccc2c(OCc3cn(CCCO[C@H]4O[C@@H]5O[C@@]6(C)CC[C@H]7[C@H](C)CC[C@@H]([C@H]4C)[C@@]57OO6)nn3)cc(=O)oc2c1C [6n] | 1.13 | 6.53 |  |  | 4.19 | 9.16 |  |  | 10.8 | 13.3 | 0.039 | 30.4 | 115 to 117 | 33.7 | 22.5 | 
8 | Cc1cccc2c(OCc3cn(CCCO[C@H]4O[C@@H]5O[C@@]6(C)CC[C@H]7[C@H](C)CC[C@@H]([C@H]4C)[C@@]57OO6)nn3)cc(=O)oc12 [6o] | 1.43 | > 10 |  |  | 29 | 81.6 |  |  | 18.6 | 47.6 | 39.9 | 78.1 | 143 to 145 | 42.4 | 12.1 | 
9 | Cc1ccc2oc(=O)cc(OCc3cn(CCCO[C@H]4O[C@@H]5O[C@@]6(C)CC[C@H]7[C@H](C)CC[C@@H]([C@H]4C)[C@@]57OO6)nn3)c2c1 [6p] | 1.42 | > 10 | 23.4 | 3451.29 ± 646.50 | 12.5 | 7.49 | 35.2 | 747.80 ± 125.56 | 10.3 | 22.1 | 18.8 | 18.9 | 80 to 82 | 38.1 | 35.3 | 
